According to US20230416329A1, “A PEPTIDE WITH DISULFIDE BONDS AND INHIBITORY ACTIVITY AGAINST SERINE PROTEASES, DERIVED HYBRID PEPTIDES THEREOF, AND USES THEREOF” (INSTITUTE OF MATERIA MEDICA , CHINESE ACADEMY OF MEDICAL …, priority 2020, published 2023):
Like-named read-outs stand apart in the source and are kept apart here. Bridge positions count the residues as written; N and C are the ends. Square brackets hold non-standard residues; d marks the D form. Peptide text beside a SMILES is read from it. Nle = CCCC[C@H](N)C(=O)O

Target: T1, bovine trypsin (Bos taurus, UniProt P00760)
T1 sequence (P00760 24-246): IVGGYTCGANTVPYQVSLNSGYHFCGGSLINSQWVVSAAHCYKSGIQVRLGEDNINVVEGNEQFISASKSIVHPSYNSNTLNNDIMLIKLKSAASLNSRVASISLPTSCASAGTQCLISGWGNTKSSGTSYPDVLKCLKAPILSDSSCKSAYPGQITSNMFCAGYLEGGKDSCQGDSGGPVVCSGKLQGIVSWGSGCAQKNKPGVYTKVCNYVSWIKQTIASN
Assay: Trypsin inhibitory activity of peptides (BApNA hydrolysis, OD405; IC50, Ki, residual activity)
Type: biochemical
Conditions: for IC50: trypsin 50 nM, BApNA 1.22 mM, read-out: IC50; for Ki: Ki=IC50/(1+S/Km), Km 0.33 mM, read-out: Ki
Protocol: The substrates N-succinyl-Ala-Ala-Pro-Phe-p-nitroaniline (AAPFpNA), Nα—Benzoyl-L-arginine-4-nitroaniline hydrochloride (BApNA) and N-succinyl-[…] (AAApNA) are used in competitive binding reaction to determine the inhibitory activities against α-chymotrypsin, bovine trypsin, and porcine pancreatic elastase, respectively. Experiments for α-chymotrypsin and bovine trypsin inhibition were measured in 20 mM CaCl2, 50 mM Tris-HCl buffer (pH 7.8), and that for porcine elastase inhibition was measured in 50 mM Tris-HCl buffer (pH 8.0). The concentration of the peptide was measured using optical density (OD) at 280 nm. The Michaelis constant (Km) of the enzyme hydrolysis substrate is calculated from the initial rate of substrate hydrolysis at 405 nm. The absorbance value of the substrate was measured at 405 nm after complete hydrolysis. All data were processed using nonlinear regression.
• (1) Added 200 μL of reaction buffer (20 mM CaCl2 and 50 mM Tris-HCl, pH 7.8) into the 96-well plate, and preheated at 37° C. for 15 min. Then added 5 μL of different concentrations of substrates (p-Nitroanilide, pNA, 0.5% in DMSO), and mixed by centrifugation at 500 rpm for 1 min. […] The experiment was performed in triplicate. The standard curve was obtained by plotting the OD405 nm value with pNA concentration. • (2) Added 190 μL of reaction buffer (20 mM CaCl2 and 50 mM Tris-HCl, pH 7.8) and 10 μL of 1 μM trypsin into the 96-well plate, and preheated at 37° C. for 15 min. Then added 5 μL of different concentrations of substrates (BApNA, 0.5% in DMSO) and mixed by centrifugation at 500 rpm for 1 min. […] The experiment was performed in triplicate. The corresponding curve was obtained by plotting the OD405 nm value with time. Divided the slope of the curve by the slope of the standard curve and the enzyme concentration to obtain the initial velocity V0 (mM/(min*mM protein). Plotted the initial velocity V0 with the concentration of substrate BApNA using Prism software, and the Michaelis constant Km value of trypsin hydrolyzing BApNA was obtained.
• (1) Added a total 190 μL of reaction buffer (20 mM CaCl2 and 50 mM Tris-HCl, pH 7.8) along with different concentrations of anti-trypsin peptides (BTs) into the pre-cooled 96-well plate, followed by preheating at 37° C., and spined down at 500 rpm for 5 min. Next added 10 μL of 1 μM trypsin, incubated at 37° C., and then spined down at 500 rpm for 10 min. Finally, added 5 μL of 50 mM BApNA, and mixed by centrifugation at 500 rpm for 1 min. The plate was incubated at 37° C. for 260 min, and the absorbance value at 405 nm was measured. The experiment was performed in triplicate. The blank control only contained the reaction buffer and the substrate as the minimum absorption value (Min OD405 nm). The negative control only contained the reaction buffer, the enzyme and the substrate as the maximum absorption value (Max OD405 nm). • (2) In the reaction system of 205 μL, the final concentrations of trypsin and BApNA were 50 nM and 1.22 mM, respectively. • (3) Data statistics
Residual activity of the enzyme (%)=(1−(Max OD405 nm−Sample OD405 nm)/(Max OD405 nm−Min OD405 nm))*100
Plotted the residual activity of the enzyme with […] to obtain the half inhibitory concentration (IC50) of BTs scaffold against trypsin. Then, substituted it into the formula Ki=IC50/(1+S/Km) (S, IC50 and Km were substrate concentration, half inhibitory concentration and Michaelis constant, respectively) to obtain the inhibition constant Ki of BTs scaffold against trypsin.

Compound	inhibitory activity against trypsin (in words)	Residual trypsin activity (peptide 0.00098 μM)	Residual trypsin activity (peptide 0.0098 μM)	Residual trypsin activity (peptide 0.098 μM)	Residual trypsin activity (peptide 0.98 μM)	Residual trypsin activity (peptide 9.76 μM)	Residual trypsin activity (peptide 97.56 μM)	further results
CC[C@H](C)[C@@H]1NC(=O)[C@@H]2CCCN2C(=O)[C@@H]2CCCN2C(=O)[C@H]([C@@H](C)CC)NC(=O)[C@H](CO)NC(=O)[C@H](CCCNC(=N)N)NC(=O)[C@H]([C@@H](C)O)NC(=O)[C@H](C)NC(=O)[C@H](CCCNC(=N)N)NC(=O)CNC(=O)[C@@H](N)CSSC[C@@H](C(=O)N[C@@H](C)C(=O)O)NC1=O [BT19] (H-CGRATRSIPPICA-OH; disulfide 1-12; N-terminus and C-terminus assumed)	significant impact on their anti-trypsisn activities							
CC[C@H](C)[C@@H]1NC(=O)[C@H](CO)NC(=O)[C@H](CCCNC(=N)N)NC(=O)[C@H]([C@@H](C)O)NC(=O)[C@H](C)NC(=O)[C@H](CCCNC(=N)N)NC(=O)CNC(=O)[C@@H](N)CSSC[C@@H](C(=O)N[C@@H](Cc2ccccc2)C(=O)O)NC(=O)[C@H]([C@@H](C)CC)NC(=O)[C@@H]2CCCN2C(=O)[C@H](C)NC1=O [BT20] (H-CGRATRSIAPICF-OH; disulfide 1-12 (inferred); N-terminus and C-terminus assumed)								IC50: > 50000 nM
CC[C@H](C)[C@@H]1NC(=O)[C@@H]2CCCN2C(=O)[C@@H]2CCCN2C(=O)[C@H](C)NC(=O)[C@H](CO)NC(=O)[C@H](CCCNC(=N)N)NC(=O)[C@H]([C@@H](C)O)NC(=O)[C@H](C)NC(=O)[C@H](CCCNC(=N)N)NC(=O)CNC(=O)[C@@H](N)CSSC[C@@H](C(=O)N[C@@H](Cc2ccccc2)C(=O)O)NC1=O [BT21] (H-CGRATRSAPPICF-OH; disulfide 1-12; N-terminus and C-terminus assumed)	reduced their anti-trypsin activities							
CC[C@H](C)[C@@H]1NC(=O)[C@@H]2CCCN2C(=O)[C@@H]2CCCN2C(=O)[C@H]([C@@H](C)CC)NC(=O)[C@H](C)NC(=O)[C@H](CCCNC(=N)N)NC(=O)[C@H]([C@@H](C)O)NC(=O)[C@H](C)NC(=O)[C@H](CCCNC(=N)N)NC(=O)CNC(=O)[C@@H](N)CSSC[C@@H](C(=O)N[C@@H](Cc2ccccc2)C(=O)O)NC1=O [BT22] (H-CGRATRAIPPICF-OH; disulfide 1-12; N-terminus and C-terminus assumed)	reduced their anti-trypsin activities							
CC[C@H](C)[C@@H]1NC(=O)[C@@H]2CCCN2C(=O)[C@@H]2CCCN2C(=O)[C@H]([C@@H](C)CC)NC(=O)[C@H](CO)NC(=O)[C@H](CCCCN)NC(=O)[C@H]([C@@H](C)O)NC(=O)[C@H](C)NC(=O)[C@H]([C@@H](C)O)NC(=O)CNC(=O)[C@@H](N)CSSC[C@@H](C(=O)N[C@@H](CC(N)=O)C(=O)O)NC1=O [BT24] (H-CGTATKSIPPICN-OH; disulfide 1-12; N-terminus and C-terminus assumed)	significant impact on their anti-trypsisn activities							
CC[C@H](C)[C@@H]1NC(=O)[C@@H]2CCCN2C(=O)[C@@H]2CCCN2C(=O)[C@H]([C@@H](C)CC)NC(=O)[C@H](CO)NC(=O)[C@H](CCCCN)NC(=O)[C@H]([C@@H](C)O)NC(=O)[C@H](C)NC(=O)[C@H]([C@@H](C)O)NC(=O)CNC(=O)[C@@H](N)CSSC[C@@H](C(=O)N[C@@H](Cc2ccccc2)C(=O)O)NC1=O [BT25] (H-CGTATKSIPPICF-OH; disulfide 1-12; C-terminus assumed)	excellent trypsin inhibitory activities	100.6 ± 1.3%	99.6 ± 1.4%	100.4 ± 1.2%	49.7 ± 3.5%	1.0 ± 0.1%	0.2 ± 0.1%	Residual trypsin activity (peptide 0.7317 μM): 82.3 ± 3.9%; Residual trypsin activity (peptide 1.2195 μM): 23.2 ± 2.1%; Residual trypsin activity (peptide 292.68 μM): 0.2 ± 0.2%
CC[C@H](C)[C@@H]1NC(=O)[C@@H]2CCCN2C(=O)[C@@H]2CCCN2C(=O)[C@H]([C@@H](C)CC)NC(=O)[C@H](CO)NC(=O)[C@H](CCCCN)NC(=O)[C@H](C)NC(=O)[C@H](C)NC(=O)[C@H](CCCNC(=N)N)NC(=O)CNC(=O)[C@@H](N)CSSC[C@@H](C(=O)N[C@@H](Cc2ccccc2)C(=O)O)NC1=O [BT26] (H-CGRAAKSIPPICF-OH; disulfide 1-12; N-terminus and C-terminus assumed)			99.5 ± 0.9%	100.2 ± 1.4%	94.5 ± 0.7%	0.4 ± 0.1%	0.1 ± 0.0%	Residual trypsin activity (peptide 1.95 μM): 77.6 ± 3.1%; Residual trypsin activity (peptide 2.439 μM): 55.1 ± 1.3%; Residual trypsin activity (peptide 3.90 μM): 1.4 ± 0.1%; Residual trypsin activity (peptide 975.61 μM): 0.5 ± 0.0%
CC[C@H](C)[C@@H]1NC(=O)[C@@H]2CCCN2C(=O)[C@@H]2CCCN2C(=O)[C@H]([C@@H](C)CC)NC(=O)[C@H](C)NC(=O)[C@H](CCCCN)NC(=O)[C@H]([C@@H](C)O)NC(=O)[C@H](C)NC(=O)[C@H](CCCNC(=N)N)NC(=O)CNC(=O)[C@@H](N)CSSC[C@@H](C(=O)N[C@@H](Cc2ccccc2)C(=O)O)NC1=O [BT27] (H-CGRATKAIPPICF-OH; disulfide 1-12; C-terminus assumed)	reduced their anti-trypsin activities	98.9 ± 1.5%	103.5 ± 2.4%	92.0 ± 1.9%	1.3 ± 0.3%	0.1 ± 0.0%	0.1 ± 0.0%	Ki: 60 nM; inhibitory activity against trypsin (in words) (listed as SEQ ID NO: 27): excellent trypsin inhibitory activities; Residual trypsin activity (peptide 0.000098 μM): 101.0 ± 0.7%; Residual trypsin activity (peptide 0.195 μM): 74.1 ± 1.3%; Residual trypsin activity (peptide 0.293 μM): 49.2 ± 3.0%; Residual trypsin activity (peptide 0.390 μM): 19.9 ± 6.3%
CCCC[C@@H]1NC(=O)[C@H](CO)NC(=O)[C@H](CCCCN)NC(=O)[C@H]([C@@H](C)O)NC(=O)[C@H](C)NC(=O)[C@H](CCCNC(=N)N)NC(=O)CNC(=O)[C@@H](N)CSSC[C@@H](C(=O)N[C@@H](Cc2ccccc2)C(=O)O)NC(=O)[C@H]([C@@H](C)CC)NC(=O)[C@@H]2CCCN2C(=O)[C@@H]2CCCN2C1=O [BT28] (H-CGRATKS[Nle]PPICF-OH; disulfide 1-12; C-terminus assumed)	reduced their anti-trypsin activities	102.3 ± 0.7%	101.8 ± 0.1%	92.2 ± 5.5%	0.7 ± 0.0%	0.1 ± 0.0%	0.0 ± 0.0%	Ki: 60 nM; inhibitory activity against trypsin (in words) (listed as SEQ ID NO: 28): excellent trypsin inhibitory activities; Residual trypsin activity (peptide 0.195 μM): 77.6 ± 8.3%; Residual trypsin activity (peptide 0.293 μM): 52.7 ± 5.9%; Residual trypsin activity (peptide 0.390 μM): 16.7 ± 3.7%; IC50: 290 nM
